Experimental findings from patent publication US20250114462A1, “HYDROPHILIC FUNCTIONALIZED PARTICLES IN THE DELIVERY OF HYDROPHOBIC DRUGS” (NEW JERSEY INSTITUTE OF TECHNOLOGY, priority 2023, published 2025) are described below.

The structures appear in SMILES notation.

The data set is described as follows: In vitro dissolution profile (USP-42 paddle method). The class given is physicochemical. As to conditions: for 50% dissolution time (T50): composites with 0.5 to 1.0% of HFP. The procedure: Dissolution measurements were carried out using USP-42 paddle method with Symphony 7100 Distek dissolution instrument. Agilent 8453 model UV-Visible spectrophotometer was used at a wavelength at 295.0 nm for the reference drug Griseofulvin standard absorbance measurements that calibrated to measure the formulation polymer incorporated drugs concentration and dissolution percentage estimation.

On to `COC1=CC(=O)C[C@@H](C)[C@]12Oc1c(Cl)c(OC)cc(OC)c1C2=O` [Griseofulvin (GF), griseofulvin], for which the Initial dissolution rate was 110.3 µg/min and the “50% dissolution time (T50)” value was determined as 40.

`CC(=O)O[C@]1(C(C)=O)CC[C@H]2[C@@H]3C=C(C)C4=CC(=O)CC[C@]4(C)[C@H]3CC[C@@]21C` [Megestrol Acetate (MA), megestrol acetate]: the Initial dissolution rate worked out at 84.1 µg/min and the “50% dissolution time (T50)” value stood at 138.

The compound `COc1ccc(-n2nc(C(N)=O)c3c2C(=O)N(c2ccc(N4CCCCC4=O)cc2)CC3)cc1` [Apixaban (APX), apixaban] came in with an Initial dissolution rate of 74.3 µg/min.
